Measured values as given in patent publication US20150064227A1, “Sporicidal Formulation Including Botanical Extracts/Botanical-Derived Ingredients” (priority 2011, published 2015).

test system: C. diff. spores (Clostridium difficile ATCC 43593); assay: Sporicidal Efficacy Test against C. diff. spores; assay type: cell-based; conditions: botanical-derived ingredient 5.9 mg/ml in 75 % ethanol / 25 % water by volume; 5 min contact time
Description: (§1) To determine the kill rate of solutions of interest against bacterial spores.
(§2) Materials: • 1. Test solutions of interest • 2. Clostridium difficile ATCC 43593 • 3. Geobacillus stearothermophilus CICC 10142 • 4. Filter sterilized MilliQ water • 5. Neutralization broth (prepared according to directions below) • 6. Brain Heart Infusion (BHI) agar plates with 0.15% Sodium Taurocholate • 7. Tryptic Soy Agar (TSA) plates • 8. Taurocholic acid sodium salt hydrate (Sigma-Aldrich T-4009) • 9. Phosphate buffered saline (PBS) pH 7.2 • 10. Fetal Bovine Serum (FBS) • 11. Sterile plating beads • 12. Sterile Eppendorf vials (1.5 mL) • 13. Sterile tubes (15 mL) • 14. Pipettes and sterile pipette tips (100 μL and 1000 μL) • 15. Incubator capable of 37±3° C. • 16. Anaerobic rectangular jar (7 Liter AnaeroPack System commercially available from Mitsubishi Gas Chemical Co.) with 3 GasPak satchels (BD GasPak EZ, #260678)
(§3) Procedure: • 1. Prepare culture stock of organism of interest to 10^7 CFU/ml in PBS. • 2. Thoroughly vortex the stock culture for ten minutes at medium-high speed. • 3. Dilute a small portion of the stock culture in MilliQ filter sterilized water and add FBS soil load to the inoculum to achieve a concentration of 5% v/v FBS. • 4. Place the inoculum in a sonicating water bath for five cycles of one minute on, one minute off • 5. Add 100 μL of spore culture to sterile vial containing 900 μL of test solution and vortex. • 6. After the test exposure time, vortex the vials. • 7. Transfer 100 μL of test solution and spore mixture to sterile tubes containing 900 μL neutralization broth to neutralize. • 8. Place the neutralized samples in a sonicating water bath for five cycles of one minute on, one minute off • 9. Vortex each tube. For C. difficile, pipette 100 μL of each neutralized sample on BHI+0.15% sodium taurocholate media plates (prepared in lab according to dehydrated powder instructions). For G. stearothermophilus, pipette 100 μL of each neutralized sample onto TSA plates. Spread using sterile beads. • 10. Prepare a control sample by adding the spore culture to 900 μL of filter sterilized MQ water and repeat steps 3-6 above. Dilute control code to achieve 10^2 CFU/ml. • 11. For C. difficile, place plates in anaerobic jars or boxes (with appropriate number of catalase pouches) or in the anaerobic chamber and incubate for 48±8 hours at 37±3° C. For G. stearothermophilus, incubate plates aerobically for 48±8 hours at […]. • 12. After incubation, enumerate colonies and record results. Calculate Log10 reduction by comparing the number of colonies recovered from the test solution versus those recovered with the control.
(§4) Neutralization Broth Preparation: • 1. Mix the following ingredients: • 1 L Letheen broth • 0.3% ppm Lecithin • 3% ppm Tween 80 • 0.1% ppm Histidine • 2. Solution is sterilized by autoclave. • 3. Catalase (0.1-0.2%) is added when completely cooled and then filter sterilized.

Q: For `C[C@H]1COC2=C1C(=O)C(=O)c1c2ccc2c1CCCC2(C)C` [Cryptotanshinone], which “Log Reduction (5 min contact time)” value is on record?
A: 3.43

same assay, conditions: botanical-derived ingredient 10 mg/ml in 75 % ethanol / 25 % water by volume; 5 min contact time

Q: For `CC(C)=CCC[C@]1(C)C=Cc2c(O)c3c(c(CC=C(C)C)c2O1)O[C@]12C(=C[C@@H]4C[C@H]1C(C)(C)O[C@@]2(C/C=C(/C)C(=O)O)C4=O)C3=O` [Gambogic acid], which “Log Reduction (5 min contact time)” value is on record?
A: 3.96

Q: How did the “Log Reduction (5 min contact time)” value turn out when `CC(C)=CCCC1(C)CC(O)c2c(O)c3c(c(CC=C(C)C)c2O1)OC12C(=CC4CC1C(C)(C)OC2(C/C=C(\C)C(=O)O)C4=O)C3=O` (stereo not drawn) [Neogambogic acid] was run?
A: 3.96

same assay, conditions: concentration not given

Q: How did the “sporicidal activity against C. diff. (in words)” value turn out when `Cc1cccc2c3c(ccc12)C1=C(C(=O)C3=O)[C@@H](C)CO1` [dihydrotanshinone] was run?
A: no detectable effect

Q: Which “sporicidal activity against C. diff. (in words)” value does the source give for `Cc1coc2c1C(=O)C(=O)c1c-2ccc2c1CCCC2(C)C` [tanshinone IIA] here?
A: no detectable effect

test system: bacterial spores; assay: Sporicidal Efficacy Test, spore species not given; assay type: cell-based; conditions: under the Sporicidal Efficacy Test; concentration not given
Description: as §1, §2, §3, §4

Q: How did the “sporicidal activity (in words)” value turn out when `CC(C)=CCC[C@]1(C)C=Cc2c(O)c3c(c(CC=C(C)C)c2O1)O[C@]12C(=C[C@@H]4C[C@H]1C(C)(C)O[C@@]2(C/C=C(/C)C(=O)O)C4=O)C3=O` [Gambogic acid] was run?
A: demonstrated sporicidal activity

Q: With `C[C@H](N)C(=O)O` [L-alanine] as the molecule, how does the “sporicidal activity (in words)” value read?
A: None of these ingredients derived from botanical extracts illustrated sporicidal activity

Q: For `O=C(O)[C@@H]1CCCN1` [L-proline], which “sporicidal activity (in words)” value is on record?
A: None of these ingredients derived from botanical extracts illustrated sporicidal activity

Q: Which “sporicidal activity (in words)” value does the source give for `CC(C)=CCCC1(C)CC(O)c2c(O)c3c(c(CC=C(C)C)c2O1)OC12C(=CC4CC1C(C)(C)OC2(C/C=C(\C)C(=O)O)C4=O)C3=O` (stereo not drawn) [Neogambogic acid] here?
A: demonstrated sporicidal activity

Q: `CC(C)=CCc1cc2c(cc1O)O[C@H](c1ccc(O)cc1)CC2=O` [bavachin] was tested. Which “sporicidal activity (in words)” value did it give?
A: None of these ingredients derived from botanical extracts illustrated sporicidal activity

Q: For `O=C(O)/C=C/c1ccc(O)c(O)c1` [caffeic acid], which “sporicidal activity (in words)” value is on record?
A: None of these ingredients derived from botanical extracts illustrated sporicidal activity

Q: With `CC12CCC(CC1)C(C)(C)O2` [cineole] as the molecule, how does the “sporicidal activity (in words)” value read?
A: None of these ingredients derived from botanical extracts illustrated sporicidal activity

Q: How did the “sporicidal activity (in words)” value turn out when `Cc1cccc2c3c(ccc12)C1=C(C(=O)C3=O)[C@@H](C)CO1` [dihydrotanshinone] was run?
A: None of these ingredients derived from botanical extracts illustrated sporicidal activity

Q: For `COc1cc(/C=C/C(=O)O)ccc1O` [ferulic acid], which “sporicidal activity (in words)” value is on record?
A: None of these ingredients derived from botanical extracts illustrated sporicidal activity

Q: `COC(=O)C1=CO[C@@H](O[C@@H]2O[C@H](CO)[C@@H](O)[C@H](O)[C@H]2O)[C@@H]2C(CO)=CC[C@H]12` [geniposide] was tested. Which “sporicidal activity (in words)” value did it give?
A: None of these ingredients derived from botanical extracts illustrated sporicidal activity

Q: With `O=c1c(-c2ccc(O)cc2)coc2cc(O)cc(O)c12` [genistein] as the molecule, how does the “sporicidal activity (in words)” value read?
A: None of these botanical extracts illustrated sporicidal activity

Q: `COc1ccc(-c2oc3c(CC=C(C)C)c(O)cc(O)c3c(=O)c2O)cc1` [icaritin] was tested. Which “sporicidal activity (in words)” value did it give?
A: None of these ingredients derived from botanical extracts illustrated sporicidal activity

Q: For `CC(C)=CCOc1c2occc2cc2ccc(=O)oc12` [imperatonin], which “sporicidal activity (in words)” value is on record?
A: None of these ingredients derived from botanical extracts illustrated sporicidal activity

Q: With `CC(C)=CCOc1c2ccoc2cc2oc(=O)ccc12` [isoimperatorin] as the molecule, how does the “sporicidal activity (in words)” value read?
A: None of these ingredients derived from botanical extracts illustrated sporicidal activity

Q: `O=c1c(OC2OC(CO)C(O)C(O)C2O)c(-c2ccc(O)c(O)c2)oc2cc(O)cc(O)c12` (stereo not drawn) [isoquercetrin] was tested. Which “sporicidal activity (in words)” value did it give?
A: None of these ingredients derived from botanical extracts illustrated sporicidal activity

Q: How did the “sporicidal activity (in words)” value turn out when `O=c1c(O)c(-c2ccc(O)cc2)oc2cc(O)cc(O)c12` [kaempferol] was run?
A: None of these botanical extracts illustrated sporicidal activity

Q: For `O=c1cc(-c2ccc(O)c(O)c2)oc2cc(O)cc(O)c12` [luteolin], which “sporicidal activity (in words)” value is on record?
A: None of these botanical extracts illustrated sporicidal activity

Q: With `CC(C)=CCc1cc(-c2coc3cc(O)ccc3c2=O)ccc1O` [neobavaisoflavone] as the molecule, how does the “sporicidal activity (in words)” value read?
A: None of these ingredients derived from botanical extracts illustrated sporicidal activity

Q: Which “sporicidal activity (in words)” value does the source give for `O=c1cc(-c2ccccc2)oc2cc(O)c(O)c(O)c12` [noroxylin] here?
A: None of these botanical extracts illustrated sporicidal activity

Q: `CC1(C)CC[C@]2(C(=O)O)CC[C@]3(C)C(=CC[C@@H]4[C@@]5(C)CC[C@H](O)C(C)(C)[C@@H]5CC[C@]43C)[C@@H]2C1` [oleanolic acid] was tested. Which “sporicidal activity (in words)” value did it give?
A: None of these ingredients derived from botanical extracts illustrated sporicidal activity

Q: `COc1ccc2ccc(=O)oc2c1CC=C(C)C` [osthole] was tested. Which “sporicidal activity (in words)” value did it give?
A: None of these botanical extracts illustrated sporicidal activity

Q: For `O=C(O)C=Cc1ccc(O)cc1` [p-hydroxy-cinnamic acid], which “sporicidal activity (in words)” value is on record?
A: None of these botanical extracts illustrated sporicidal activity

Q: For `O=C(O)c1ccc(O)cc1` [p-hydroxybenzoic acid], which “sporicidal activity (in words)” value is on record?
A: None of these ingredients derived from botanical extracts illustrated sporicidal activity

Q: For `O=C(O)c1ccc(O)c(O)c1` [protocatechuic acid], which “sporicidal activity (in words)” value is on record?
A: None of these ingredients derived from botanical extracts illustrated sporicidal activity

Q: With `O=c1c(-c2ccc(O)cc2)coc2c([C@@H]3O[C@H](CO)[C@@H](O)[C@H](O)[C@H]3O)c(O)ccc12` [puerarin] as the molecule, how does the “sporicidal activity (in words)” value read?
A: None of these botanical extracts illustrated sporicidal activity

Q: With `O=c1c(O)c(-c2ccc(O)c(O)c2)oc2cc(O)cc(O)c12` [quercetin] as the molecule, how does the “sporicidal activity (in words)” value read?
A: None of these botanical extracts illustrated sporicidal activity

Q: Which “sporicidal activity (in words)” value does the source give for `OC[C@H]1O[C@@H](OCCc2ccc(O)cc2)[C@H](O)[C@@H](O)[C@@H]1O` [salidroside] here?
A: None of these botanical extracts illustrated sporicidal activity

Q: Which “sporicidal activity (in words)” value does the source give for `CC[C@H](/C=C/[C@@H](C)[C@H]1CC[C@H]2[C@@H]3CC=C4C[C@@H](O)CC[C@]4(C)[C@H]3CC[C@]12C)C(C)C` [stigmasterol] here?
A: None of these ingredients derived from botanical extracts illustrated sporicidal activity

Q: For `Cc1coc2c1C(=O)C(=O)c1c-2ccc2c1CCCC2(C)C` [tanshinone IIA], which “sporicidal activity (in words)” value is on record?
A: None of these ingredients derived from botanical extracts illustrated sporicidal activity

Q: `NCCC(=O)O` [β-alanine] was tested. Which “sporicidal activity (in words)” value did it give?
A: None of these ingredients derived from botanical extracts illustrated sporicidal activity

Q: bavachinin was tested. Which “sporicidal activity (in words)” value did it give?
A: None of these ingredients derived from botanical extracts illustrated sporicidal activity
